Values of other authors, collected in publication PMC9780888, “4-Isobutylmethcathinone—A Novel Synthetic Cathinone with High In Vitro Cytotoxicity and Strong Receptor Binding Preference of Enantiomers” (Pharmaceuticals, 2022).
pIC50: −log10 of the molar value.

Experiments:
[1] = system: DAR2-like family receptors vs DAR1-like family of receptors; conditions: cited from earlier work
HTR receptor = system: HTR receptor; design: method as in PMID 22897747; conditions: cited from earlier work
HTR2A = system: HTR2A; design: method as in PMID 22897747; conditions: cited from earlier work
[2] = system: neuronal differentiated SH-SY5Y cells; design: method as in PMID 25624004; conditions: 24-h exposure, ToxiLight BioAssay ref 30; cited from earlier work
SH-SY5Y cells = system: SH-SY5Y cells; design: method as in PMID 31473217; conditions: 24 h of exposure ref 20; cited from earlier work
SERT = conditions: S- versus R-enantiomer, 13 in b3; cited from earlier work

SMILES: NCCc1ccc(O)c(O)c1 [DA, dopamine]
- affinity of DAR2-like family receptors relative to DAR1-like family [1]: 10-100 fold

SMILES: CCNC(C)Cc1ccc2c(c1)OCO2 (stereo not drawn) [MDEA, 3,4-methylenedioxy-N-ethylamphetamine]
- HTR receptor binding activity (HTR receptor): has not been demonstrated

SMILES: CNC(C)C(=O)c1ccc(F)cc1 (stereo not drawn) [flephedrone]
- HTR2A-binding activity (HTR2A): has been previously described

SMILES: CNC(C)Cc1ccc2c(c1)OCO2 (stereo not drawn) [MDMA, 3,4-methylenedioxymethamphetamine]
- HTR receptor binding activity (HTR receptor): has not been demonstrated

SMILES: CCCC(C(=O)c1ccccc1)N1CCCC1 (stereo not drawn) [alpha-PVP]
- reported value for mitochondrial dysfunction [2]: above 100 mM

SMILES: CNC(C)C(=O)c1ccccc1 (stereo not drawn) [methcathinone]
- HTR2A-binding activity (HTR2A): has been previously described

SMILES: CNC(C)C(=O)c1ccc(C)c(C)c1 (stereo not drawn) [3,4-DMMC]
- pIC50 (SH-SY5Y cells): < 3.00

SMILES: CN[C@@H](C)C(=O)c1ccc(C)cc1 [S-mephedrone]
- potency as SERT releaser relative to R-mephedrone (SERT): 40 times

SMILES: CNC(C)C(=O)c1ccc(C)cc1 (stereo not drawn) [mephedrone]
- HTR2A-binding activity (HTR2A): has been previously described
